What all share (format): biochemical
For assay [1], the target named is T1, MAO-A enzyme (Homo sapiens, UniProt P21397).
T1 construct: purchased Sigma-Aldrich Chemicals (St. Louis, MO)
T1 sequence (P21397 1-527): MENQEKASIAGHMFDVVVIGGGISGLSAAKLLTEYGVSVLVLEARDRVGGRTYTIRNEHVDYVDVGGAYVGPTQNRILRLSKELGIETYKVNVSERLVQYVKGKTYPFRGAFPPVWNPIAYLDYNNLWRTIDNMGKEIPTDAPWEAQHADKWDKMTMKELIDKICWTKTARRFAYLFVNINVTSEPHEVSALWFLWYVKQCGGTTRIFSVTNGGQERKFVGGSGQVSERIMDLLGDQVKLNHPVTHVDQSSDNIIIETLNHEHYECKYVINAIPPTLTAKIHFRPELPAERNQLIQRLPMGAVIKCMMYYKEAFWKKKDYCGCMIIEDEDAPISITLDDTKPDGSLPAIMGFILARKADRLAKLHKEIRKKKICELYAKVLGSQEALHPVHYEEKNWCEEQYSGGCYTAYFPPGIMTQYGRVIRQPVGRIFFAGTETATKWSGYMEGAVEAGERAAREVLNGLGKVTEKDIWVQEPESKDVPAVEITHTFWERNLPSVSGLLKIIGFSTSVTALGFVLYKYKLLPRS
Nature of the assay: MAO activity assay, fluorimetric, kynuramine substrate (MAO-A). As to conditions: for MAO-A versus MAO-B selectivity: from inhibition rates at 10^−4 M.

The next assay addresses T2, human recombinant MAO-B (Homo sapiens, UniProt P27338).
T2 construct: purchased Sigma-Aldrich Chemicals (St. Louis, MO)
T2 sequence (P27338 1-520): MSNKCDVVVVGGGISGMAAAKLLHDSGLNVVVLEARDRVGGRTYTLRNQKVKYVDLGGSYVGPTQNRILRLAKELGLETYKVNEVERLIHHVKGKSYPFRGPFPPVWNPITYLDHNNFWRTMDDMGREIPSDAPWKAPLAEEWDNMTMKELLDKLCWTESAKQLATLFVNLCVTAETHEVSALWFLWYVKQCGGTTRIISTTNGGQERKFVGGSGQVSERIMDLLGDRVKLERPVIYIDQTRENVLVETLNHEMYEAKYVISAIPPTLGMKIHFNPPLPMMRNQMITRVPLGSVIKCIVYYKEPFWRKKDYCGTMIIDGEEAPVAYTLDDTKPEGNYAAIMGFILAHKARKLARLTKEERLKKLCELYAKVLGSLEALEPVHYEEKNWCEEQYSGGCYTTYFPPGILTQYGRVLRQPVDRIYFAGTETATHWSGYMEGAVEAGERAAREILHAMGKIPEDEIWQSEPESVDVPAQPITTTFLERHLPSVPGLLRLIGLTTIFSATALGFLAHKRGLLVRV
Briefly: MAO activity assay, fluorimetric, kynuramine substrate (MAO-B).

Assay [2] addresses T1, MAO-A enzyme. Briefly: MAO-A enzyme kinetics (Lineweaver-Burk plots). On the procedure:
The nature of MAO-A inhibition, caused by this compound, was investigated by the graphical analysis of steady-state inhibition data.
Figure 2. […] Substrate (kynuramine) concentrations used: 40, 20, 10, 5, 2.5 and 1.25 μM. 1/V: 1/velocity of reaction [1/(nmoles/min/mg protein)], 1/S: 1/substrate concentration (1/μM).
The same materials were used in MAO enzyme kinetic assay. The compound 2e was prepared at IC50 concentration and then added to the wells (100 µL/well). Stock solution (25 mM) of kynuramine was diluted to final concentrations of 40, 20, 10, 5, 2.5 and 1.25 µM and then added to the wells (50 µL/well). After MAO-A enzyme was added to the plate (50 µL/well), incubation period at 37 °C for 20 min was started. The plate was read at 310/340 nm excitation/emission wavelength pair[31]. Control measurement without inhibitor was also determined simultaneously. The results were analyzed in Lineweaver–Burk plots using Microsoft Office Excel 2013.

pIC50: −log10 of the molar value. Entries after “also recorded” stand apart in the source; their conditions may differ.

In the case of `Cc1ccc(CN2CCN(C(=S)SCC(=O)N3CCN(c4ncccn4)CC3)CC2)cc1` [Compound 2l, 2-[4-(Pyrimidin-2-yl)piperazin-1-yl]-2-oxoethyl 4-(4-methylbenzyl)piperazine-1-carbodithioate], the pIC50 – broadly, the negative decadic logarithm of the IC50, by convention in mol/L – against MAO-A enzyme [1] was under 3.00. Moreover, the MAO-A inhibition % on MAO-A enzyme [1] (10^−3 M) was determined as 32.31 ± 0.86%; on MAO-A enzyme [1] (10^−4 M), 15.38 ± 0.61%. For the same molecule, at human recombinant MAO-B (10^−4 M), the “MAO B inhibition %” value was 15.00 ± 0.68%.
Consider `CCN1CCN(C(=S)SCC(=O)N2CCN(c3ncccn3)CC2)CC1` [Compound 2b, 2-[4-(Pyrimidin-2-yl)piperazin-1-yl]-2-oxoethyl 4-ethylpiperazine-1-carbodithioate], for which the pIC50 on MAO-A enzyme [1] and on human recombinant MAO-B was under 3.00 throughout. Further, the MAO-A inhibition % at MAO-A enzyme [1] (10^−3 M) stood at 11.52 ± 0.38%; at MAO-A enzyme [1] (10^−4 M), 6.86 ± 0.21%. Besides, the “MAO B inhibition %” value on human recombinant MAO-B (10^−3 M) is 10.08 ± 0.42%; at human recombinant MAO-B (10^−4 M) it was 5.65 ± 0.14%.
Regarding `Cc1ccc(N2CCN(C(=S)SCC(=O)N3CCN(c4ncccn4)CC3)CC2)cc1` [Compound 2g, 2-[4-(Pyrimidin-2-yl)piperazin-1-yl]-2-oxoethyl 4-(p-tolyl)piperazine-1-carbodithioate], the pIC50 at MAO-A enzyme [1] and at human recombinant MAO-B was under 3.00 in each case. The MAO-A inhibition % was 37.50 ± 1.42% at MAO-A enzyme [1] (10^−3 M) and 33.33 ± 0.99% at MAO-A enzyme [1] (10^−4 M). Besides, the “MAO B inhibition %” value is 18.20 ± 0.82% on human recombinant MAO-B (10^−3 M) and 10.76 ± 0.33% at human recombinant MAO-B (10^−4 M).
For the molecule `O=C(CSC(=S)N1CCN(CCO)CC1)N1CCN(c2ncccn2)CC1` [Compound 2c, 2-[4-(Pyrimidin-2-yl)piperazin-1-yl]-2-oxoethyl 4-(2-hydroxyethyl)piperazine-1-carbodithioate], the pIC50 against MAO-A enzyme [1] and on human recombinant MAO-B was under 3.00 throughout. Besides, the MAO-A inhibition % at MAO-A enzyme [1] (10^−3 M) is reported as 15.88 ± 0.55%; at MAO-A enzyme [1] (10^−4 M), 9.27 ± 0.27%. Also, the results for the “MAO B inhibition %” value at human recombinant MAO-B (10^−3 M) and at human recombinant MAO-B (10^−4 M) were 12.30 ± 0.48% and 7.39 ± 0.25%, respectively.
For `O=C(CSC(=S)N1CCN(C(c2ccccc2)c2ccccc2)CC1)N1CCN(c2ncccn2)CC1` [Compound 2m, 2-[4-(Pyrimidin-2-yl)piperazin-1-yl]-2-oxoethyl 4-benzhydrylpiperazine-1-carbodithioate], the pIC50 on MAO-A enzyme [1] is 4.62; on human recombinant MAO-B it was under 4.00. In addition, the MAO-A inhibition % at MAO-A enzyme [1] (10^−5 M) worked out at 33.65 ± 0.93%; on MAO-A enzyme [1] (10^−6 M), 28.16 ± 0.87%; on MAO-A enzyme [1] (10^−7 M), 21.88 ± 0.74%; on MAO-A enzyme [1] (10^−8 M) it was 15.77 ± 0.68%; on MAO-A enzyme [1] (10^−9 M) it was 10.62 ± 0.41%. For the same molecule, the “MAO-A versus MAO-B selectivity” value on MAO-A enzyme [1] is listed as “selective MAO-A inhibitory activity; also recorded: selective MAO-A enzyme inhibitors”. The “MAO B inhibition %” value at human recombinant MAO-B (10^−4 M) was found to be 40.00 ± 0.99%.
On to `O=C(CSC(=S)N1CCN(c2ncccn2)CC1)N1CCN(c2ncccn2)CC1` [Compound 2n, 2-[4-(Pyrimidin-2-yl)piperazin-1-yl]-2-oxoethyl 4-(pyrimidin-2-yl)piperazine-1-carbodithioate], for which the pIC50 at MAO-A enzyme [1] and on human recombinant MAO-B was under 3.00 throughout. Besides, the MAO-A inhibition % on MAO-A enzyme [1] (10^−3 M) is 31.25 ± 0.94%; at MAO-A enzyme [1] (10^−4 M), 25.00 ± 0.62%. Besides, the “MAO B inhibition %” value at human recombinant MAO-B (10^−3 M) was found to be 29.51 ± 0.74%; at human recombinant MAO-B (10^−4 M) it was 22.95 ± 0.69%.
In the case of `O=C(CSC(=S)N1CCN(c2ccccc2)CC1)N1CCN(c2ncccn2)CC1` [Compound 2f, 2-[4-(Pyrimidin-2-yl)piperazin-1-yl]-2-oxoethyl 4-phenylpiperazine-1-carbodithioate], the values for the pIC50 on MAO-A enzyme [1] and on human recombinant MAO-B were under 3.00 and under 4.00, respectively. Also, the MAO-A inhibition % on MAO-A enzyme [1] (10^−3 M) was 33.33 ± 1.30%; on MAO-A enzyme [1] (10^−4 M), 31.25 ± 0.88%. Further, on human recombinant MAO-B (10^−4 M), the “MAO B inhibition %” value is 31.15 ± 0.67%.
For `CN1CCN(C(=S)SCC(=O)N2CCN(c3ncccn3)CC2)CC1` [Compound 2a, 2-[4-(Pyrimidin-2-yl)piperazin-1-yl]-2-oxoethyl 4-methylpiperazine-1-carbodithioate], the negative logarithm of the IC50 (pIC50) at MAO-A enzyme [1] and at human recombinant MAO-B was under 3.00 in each case. The results for the MAO-A inhibition % on MAO-A enzyme [1] (10^−3 M) and on MAO-A enzyme [1] (10^−4 M) were 12.84 ± 0.59% and 7.33 ± 0.19%, respectively. The results for the “MAO B inhibition %” value on human recombinant MAO-B (10^−3 M) and on human recombinant MAO-B (10^−4 M) were 10.23 ± 0.31% and 5.37 ± 0.22%, respectively.
As for `O=C(CSC(=S)N1CCN(Cc2ccccc2)CC1)N1CCN(c2ncccn2)CC1` [Compound 2k], the pIC50 against MAO-A enzyme [1] and on human recombinant MAO-B was under 3.00 throughout. Moreover, the MAO-A inhibition % was 19.81 ± 0.59% at MAO-A enzyme [1] (10^−3 M) and 6.15 ± 0.18% at MAO-A enzyme [1] (10^−4 M). The “MAO B inhibition %” value at human recombinant MAO-B (10^−3 M) turned out to be 13.08 ± 0.56%; at human recombinant MAO-B (10^−4 M), 5.87 ± 0.22%.
For `O=C(CSC(=S)N1CCN(c2ccc(Cl)cc2)CC1)N1CCN(c2ncccn2)CC1` [Compound 2h, 2-[4-(Pyrimidin-2-yl)piperazin-1-yl]-2-oxoethyl 4-(4-chlorophenyl)piperazine-1-carbodithioate], the negative logarithm of the IC50 (pIC50) against MAO-A enzyme [1] and on human recombinant MAO-B was under 3.00 each time. For the same molecule, the MAO-A inhibition % at MAO-A enzyme [1] (10^−3 M) stood at 13.45 ± 0.38%; at MAO-A enzyme [1] (10^−4 M) it was 6.70 ± 0.22%. In addition, the results for the “MAO B inhibition %” value on human recombinant MAO-B (10^−3 M) and on human recombinant MAO-B (10^−4 M) were 40.98 ± 1.20% and 31.15 ± 1.07%, respectively.
As to `O=C(CSC(=S)N1CCN(c2ccc(F)cc2)CC1)N1CCN(c2ncccn2)CC1` [Compound 2i, 2-[4-(Pyrimidin-2-yl)piperazin-1-yl]-2-oxoethyl 4-(4-fluorophenyl)piperazine-1-carbodithioate], the pIC50 against MAO-A enzyme [1] is under 4.00; at human recombinant MAO-B it was under 3.00. Besides, the MAO-A inhibition % on MAO-A enzyme [1] (10^−4 M) was 39.58 ± 0.95%. Besides, the “MAO B inhibition %” value on human recombinant MAO-B (10^−3 M) came out at 44.26 ± 1.13%; at human recombinant MAO-B (10^−4 M), 27.86 ± 0.66%.
Consider `O=C(CSC(=S)N1CCN(c2ccc([N+](=O)[O-])cc2)CC1)N1CCN(c2ncccn2)CC1` [Compound 2j, 2-[4-(Pyrimidin-2-yl)piperazin-1-yl]-2-oxoethyl 4-(4-nitrophenyl)piperazine-1-carbodithioate], for which the pIC50 at MAO-A enzyme [1] was 4.64; at human recombinant MAO-B, under 4.00. Moreover, the MAO-A inhibition % amounted to 42.45 ± 1.18% on MAO-A enzyme [1] (10^−5 M); 29.70 ± 0.72% on MAO-A enzyme [1] (10^−6 M); 20.19 ± 0.64% on MAO-A enzyme [1] (10^−7 M); 16.05 ± 0.40% on MAO-A enzyme [1] (10^−8 M); 11.53 ± 0.29% at MAO-A enzyme [1] (10^−9 M). Besides, the “MAO-A versus MAO-B selectivity” value on MAO-A enzyme [1] is on record as “selective MAO-A inhibitory activity; also recorded: selective MAO-A enzyme inhibitors”. Also, at MAO-A enzyme [2] (Lineweaver–Burk plots, kynuramine 40-1.25 μM), the “nature of MAO-A inhibition” value is listed as “mix-typed inhibitor”. In addition, at MAO-A enzyme [2] (nonlinear regression, MAO-A, kynuramine), the Vmax stood at 5.34. At human recombinant MAO-B (10^−4 M), the “MAO B inhibition %” value was 40.98 ± 0.94%.
With `O=C(CSC(=S)N1CCN(C2CCCCC2)CC1)N1CCN(c2ncccn2)CC1` [Compound 2e, 2-[4-(Pyrimidin-2-yl)piperazin-1-yl]-2-oxoethyl 4-cyclohexylpiperazine-1-carbodithioate], the pIC50 on MAO-A enzyme [1] and on human recombinant MAO-B was under 3.00 in each case. The figures for the MAO-A inhibition % on MAO-A enzyme [1] (10^−3 M) and on MAO-A enzyme [1] (10^−4 M) were 16.75 ± 0.42% and 5.90 ± 0.15%, respectively. Further, the results for the “MAO B inhibition %” value on human recombinant MAO-B (10^−3 M) and on human recombinant MAO-B (10^−4 M) were 12.60 ± 0.45% and 5.22 ± 0.18%, respectively.
Turning to `CN(C)CCN1CCN(C(=S)SCC(=O)N2CCN(c3ncccn3)CC2)CC1` [Compound 2d, 2-[4-(Pyrimidin-2-yl)piperazin-1-yl]-2-oxoethyl 4-(2-(dimethylamino)ethyl)piperazine-1-carbodithioate], the pIC50 against MAO-A enzyme [1] and on human recombinant MAO-B was under 3.00 in each case. Also, the MAO-A inhibition % on MAO-A enzyme [1] (10^−3 M) was 18.74 ± 0.52%; at MAO-A enzyme [1] (10^−4 M), 7.39 ± 0.30%. The results for the “MAO B inhibition %” value at human recombinant MAO-B (10^−3 M) and at human recombinant MAO-B (10^−4 M) were 14.37 ± 0.58% and 8.40 ± 0.23%, respectively.

Source of the values: PMC6009961, “Novel 1-(2-pyrimidin-2-yl)piperazine derivatives as selective monoamine oxidase (MAO)-A inhibitors” (Journal of Enzyme Inhibition and Medicinal Chemistry, 2017).
